SMILES strings stand for the structures. In brackets after ≈: the same amount, converted by molar mass. Read-outs that look alike come from different tables or passages of the source.

Data set [1] is described as follows: Thermal and moisture stability on storage at room/ambient temperature. To be noted: for moisture stability (in words): ambient temperature, transformation into a hydrate; for thermal stability (in words): stored at room temperature. In kind it is physicochemical. The method, then:
The 1,2-propanediol and DMSO solvates of etoricoxib obtained in the present disclosure have a relatively high desolvation temperature. The 1,2-propanediol and the DMSO have boiling points of […] and 189° C., respectively. […] Moreover, the host-guest intermolecular interaction energies in the crystal structure of etoricoxib 1,2-propanediol and DMSO solvates are −37.22 kJ/mol and −43.37 kJ/mol respectively, which are much higher than that (−30.53 kJ/mol) in hemihydrate crystal structure. It is difficult for water molecules to enter a unit cell of the 1,2-propanediol and DMSO solvates to replace the 1,2-propanediol and DMSO molecules at an ambient temperature. […] As a result, the 1,2-propanediol and DMSO solvates of etoricoxib obtained in the present disclosure both have prominent thermal stability and moisture stability.

The nature of data set [2]: Solubility in aqueous solution. As to conditions: 25° C. aqueous solution. In kind it is physicochemical. An excerpt:
Therefore, the 1,2-propanediol and DMSO solvates of etoricoxib obtained in the present disclosure both effectively improve the solubility of etoricoxib in an aqueous solution.

The nature of data set [3]: Onset temperature of desolvation in TG test (thermogravimetric analysis). The format is physicochemical. To be noted: TGA, heating rate 10° C./min, 25° C. to 250° C., nitrogen.
The nature of data set [4]: Crystal size and size distribution. The format is physicochemical. The method, then:
(§1) The 1,2-propanediol and DMSO solvates of etoricoxib obtained in the present disclosure are rod-like and bulk crystals, respectively, as shown in FIG. 10 and FIG. 11. The etoricoxib crystal form V in the prior art has a volume-average size of 16 μm and a repose angle of 44°; and the etoricoxib hemihydrate has a volume-average size of 19 μm and a repose angle of 48°. […] Therefore, the 1,2-propanediol and DMSO solvates of etoricoxib obtained in the present disclosure are perfect crystals with smooth surfaces, which are not easy to agglomerate and have prominent flowability.

Data set [5] can be described thus: Repose angle (particle flowability). The format is physicochemical. The method, then: as §1
For data set [6] the following is noted: prior-art hydrates, cited from earlier work.
Where [7] appears, read: listed as 1,2-propanediol solvate of etoricoxib.
Where [8] appears, read: listed as etoricoxib hemihydrate.
Where [9] appears, read: listed as DMSO solvate of etoricoxib.

For the molecule `Cc1ccc(-c2ncc(Cl)cc2-c2ccc(S(C)(=O)=O)cc2)cn1` [1,2-propanediol solvate], in data set [1], the “moisture stability (in words)” value was “prominent moisture stability” and the “thermal stability (in words)” value was “excellent thermal stability”. In addition, in data set [2] (setting [7]), the “solubility in aqueous solution” value amounted to 527 µg/mL. Moreover, in data set [3], the “Onset temperature of desolvation in TG test” value (“Onset temperature … in TG test” below) was 94 ± 1 °C. Besides, the “Onset temperature … in TG test” value in data set [3] (setting [7]) came to 94 °C. The primary crystal size in data set [4] turned out to be 100 μm. In addition, the “variation coefficient of size distribution” value (“variation coefficient” below) in data set [4] (setting [7]) is on record as 23.6%.
With `Cc1ccc(-c2ncc(Cl)cc2-c2ccc(S(C)(=O)=O)cc2)cn1` [Hemihydrate, 5-chloro-6′-methyl-3-[4-(methylsulfonyl)phenyl]-2,3′-bipyridine], the repose angle in data set [5] (setting [8]) came out at 48 °. The “onset temperature of dehydration” value in data set [6] (listed as hemihydrate) was “lower than 56 °C”. The “variation coefficient” value in data set [4] is listed as 53.6%. In addition, the volume-average size in data set [4] (setting [8]) worked out at 19 μm.
With `Cc1ccc(-c2ncc(Cl)cc2-c2ccc(S(C)(=O)=O)cc2)cn1` [etoricoxib crystal form V, 5-chloro-6′-methyl-3-[4-(methylsulfonyl)phenyl]-2,3′-bipyridine, reference compound], the “solubility in aqueous solution” value in data set [2] was determined as 307.9 µg/mL (≈ 858 µM). This molecule showed a repose angle in data set [5] of 44 °. Moreover, in data set [4], the “variation coefficient” value was determined as 57.2% and the volume-average size is given as 16 μm.
As for `Cc1ccc(-c2ncc(Cl)cc2-c2ccc(S(C)(=O)=O)cc2)cn1` [Methanol solvate], the figures for the “Onset temperature … in TG test” value in data set [3] and in data set [3] (listed as methanol solvate of etoricoxib) were 27 ± 1 °C and 27 °C, respectively.
Consider `Cc1ccc(-c2ncc(Cl)cc2-c2ccc(S(C)(=O)=O)cc2)cn1` [Formamide solvate], for which the “Onset temperature … in TG test” value in data set [3] (listed as formamide solvate of etoricoxib) was 90 °C.
Turning to `Cc1ccc(-c2ncc(Cl)cc2-c2ccc(S(C)(=O)=O)cc2)cn1` [NMP solvate], the “Onset temperature … in TG test” value in data set [3] was 79 ± 1 °C; in data set [3] (listed as NMP solvate of etoricoxib), 79 °C.
With `Cc1ccc(-c2ncc(Cl)cc2-c2ccc(S(C)(=O)=O)cc2)cn1` [DMSO solvate], in data set [1], the “moisture stability (in words)” value is recorded as “prominent moisture stability”. In addition, the “thermal stability (in words)” value in data set [1] is recorded as “excellent thermal stability”. Moreover, the “solubility in aqueous solution” value in data set [2] (setting [9]) stood at 1465 µg/mL. The “Onset temperature … in TG test” value in data set [3] was 66 ± 1 °C; in data set [3] (setting [9]), 66 °C. The molecule also returned a volume-average size in data set [4] of 120 μm. For the same molecule, the “variation coefficient” value in data set [4] (setting [9]) amounted to 19.7%.
In the case of `Cc1ccc(-c2ncc(Cl)cc2-c2ccc(S(C)(=O)=O)cc2)cn1` [Sesquihydrate, 5-chloro-6′-methyl-3-[4-(methylsulfonyl)phenyl]-2,3′-bipyridine], in data set [6] (listed as sesquihydrate), the “onset temperature of dehydration” value was “lower than 23 °C”.
On to `Cc1ccc(-c2ncc(Cl)cc2-c2ccc(S(C)(=O)=O)cc2)cn1` [EG solvate], for which the “Onset temperature … in TG test” value in data set [3] is 96 ± 1 °C; in data set [3] (listed as EG solvate of etoricoxib) it was 96 °C.

The values are drawn from patent US11655231B2, “Etoricoxib solvates and preparation method thereof” (Tianjin University, priority 2020, dated 2023).
